The values below come from patent publication US10702506B2, “Small molecule inhibitors of pendrin ion exchange and pharmaceutical compositions” (THE REGENTS OF THE UNIVERSITY OF CALIFORNIA, priority 2016, dated 2020).

Molecules are shown by their SMILES.

For one assay, the target named is T1, pendrin (Mus musculus, UniProt Q9R155).
T1 sequence (Q9R155 1-780): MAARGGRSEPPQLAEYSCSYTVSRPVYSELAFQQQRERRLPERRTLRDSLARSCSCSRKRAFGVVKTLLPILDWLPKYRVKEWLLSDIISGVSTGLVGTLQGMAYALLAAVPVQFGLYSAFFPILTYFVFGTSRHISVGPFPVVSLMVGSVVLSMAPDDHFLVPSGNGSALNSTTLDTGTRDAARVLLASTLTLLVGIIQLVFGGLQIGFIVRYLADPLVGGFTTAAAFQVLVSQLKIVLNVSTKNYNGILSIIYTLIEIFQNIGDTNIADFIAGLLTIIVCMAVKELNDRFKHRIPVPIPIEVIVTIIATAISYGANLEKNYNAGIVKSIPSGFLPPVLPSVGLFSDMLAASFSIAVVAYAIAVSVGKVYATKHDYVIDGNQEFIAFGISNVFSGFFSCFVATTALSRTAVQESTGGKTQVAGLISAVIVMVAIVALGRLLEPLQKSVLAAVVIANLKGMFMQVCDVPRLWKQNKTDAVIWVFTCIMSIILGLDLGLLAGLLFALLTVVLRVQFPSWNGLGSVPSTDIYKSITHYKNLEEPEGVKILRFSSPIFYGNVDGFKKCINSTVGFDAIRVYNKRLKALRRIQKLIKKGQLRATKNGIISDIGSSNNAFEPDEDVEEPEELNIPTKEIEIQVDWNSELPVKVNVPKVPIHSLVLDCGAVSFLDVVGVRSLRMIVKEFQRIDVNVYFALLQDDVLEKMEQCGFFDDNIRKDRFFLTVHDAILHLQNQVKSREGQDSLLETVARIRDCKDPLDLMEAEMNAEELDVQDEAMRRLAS
The assay can be described thus: In vitro measurement of furosemide effect on pendrin activity.
Conditions: not given
As for `NS(=O)(=O)c1cc(C(=O)O)c(NCc2ccco2)cc1Cl` [furosemide], the “effect on pendrin activity” value is given as “no effect”.

For another assay, the target named is T2, pendrin (Homo sapiens, UniProt O43511).
T2 sequence (O43511 1-780): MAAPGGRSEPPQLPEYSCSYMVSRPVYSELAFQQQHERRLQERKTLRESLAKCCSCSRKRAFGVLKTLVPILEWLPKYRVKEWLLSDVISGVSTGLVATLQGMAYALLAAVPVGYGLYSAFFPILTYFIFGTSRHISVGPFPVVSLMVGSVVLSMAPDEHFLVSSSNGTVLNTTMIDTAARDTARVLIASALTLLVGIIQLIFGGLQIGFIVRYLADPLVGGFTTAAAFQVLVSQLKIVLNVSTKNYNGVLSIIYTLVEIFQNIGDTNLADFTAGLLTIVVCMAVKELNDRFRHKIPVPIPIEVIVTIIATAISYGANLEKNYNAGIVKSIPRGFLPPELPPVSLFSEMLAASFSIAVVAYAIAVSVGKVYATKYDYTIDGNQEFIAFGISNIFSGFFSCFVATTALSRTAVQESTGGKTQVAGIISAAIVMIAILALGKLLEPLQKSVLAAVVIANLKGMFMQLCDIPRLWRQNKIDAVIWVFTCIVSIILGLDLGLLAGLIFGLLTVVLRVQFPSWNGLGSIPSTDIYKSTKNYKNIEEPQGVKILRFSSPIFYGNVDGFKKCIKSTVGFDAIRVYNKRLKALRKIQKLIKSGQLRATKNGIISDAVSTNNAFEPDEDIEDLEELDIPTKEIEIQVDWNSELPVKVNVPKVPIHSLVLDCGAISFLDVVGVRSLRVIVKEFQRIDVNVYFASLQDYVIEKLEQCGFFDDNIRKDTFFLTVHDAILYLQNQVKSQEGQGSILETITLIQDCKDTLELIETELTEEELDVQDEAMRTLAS
The assay can be described thus: YFP (EYFP-HIF) fluorescence quenching assay of pendrin-mediated Cl− exchange (SCN−, I−, NO3−) in FRT cells; high-throughput screen. Type of assay: cell-based. More on the design: expressed in transfected cells. Particulars: FRT, 25 μM; read-out: Inh. (%), percentage inhibition of human pendrin. The protocol: Fischer rat thyroid (FRT) cells were cultured in Kaign's modified Ham's F12 medium supplemented with 10% FBS, 2 mM L-glutamine, 100 U/ml penicillin, […], […] myo-inositol and […] ascorbic acid. For high-throughput screening, FRT cells were stably transfected with EYFP-H148Q/I152L/F46L (EYFP-HIF; in pcDNA3.1/Hygro (+)), isolated using 0.25 mg/ml hygromycin B, and then transfected with pcDNA3.1 (+) encoding human pendrin with clonal cell lines selected using 0.5 mg/ml G418.
High-throughput screening was performed using a semi-automated screening platform (Beckman, Fullerton, Calif.) configured as described. FRT cells expressing human pendrin and EYFP-HIF were plated in 96-well black-walled, clear-bottom tissue culture plates (Corning, Corning, N.Y.) at a density of 20,000 cells/well, and cultured to confluence over 48 h. For screening, plates were washed twice with PBS (in mM: 137 NaCl, 2.7 KCl, 1.1 KH2PO4, 8.1 Na2HPO4, 0.9 CaCl2), 0.5 MgCl2) prior to addition of 100 μl PBS containing test compounds. Screening was done with ˜36,000 compounds from ChemDiv (San Diego, Calif.), TimTec (Newark, Del.), and Asinex (Winston-Salem, N.C.). After 10 min incubation with test compound, plates were transferred to a Tecan Infinite M1000 plate reader (Tecan, Morrisville, N.C.) for fluorescence assay of pendrin activity. The assay duration was 10 s with initial fluorescence intensity recorded for 2 s prior to addition of 100 μl of NaSCN-substituted PBS (137 mM NaCl replaced with NaSCN). All assay plates contained negative controls (DMSO). In some experiments Cl^− exchange for I^− or NO3^− was measured similarly using NaI and NaNO3-substituted PBS. Control experiments to measure basal ion transport rates were done in FRT cells expressing EYFP-HIF without pendrin.
FRT cells were chosen for screening due to their low intrinsic permeability to anions that are transported by pendrin. As depicted in FIGS. 1A and 2A, pendrin activity was assayed from the kinetics of the halide-sensitive fluorescent protein EYFP-HIF in response to addition of a SCN^−-containing solution to drive pendrin-mediated Cl^−/SCN^−. Pendrin inhibition reduces the rate of EYFP-HIF quenching. PDSinh-A01 land PDSinh-C01 decreased pendrin-mediated Cl^−/SCN^− and Cl^−/I^− exchange in a concentration-dependent manner, as measured by YFP fluorescence quenching. […] Because the only previously-described pendrin inhibitor is the weakly active compound niflumic acid, no positive control was included in the screening plates.
Usually inhibition stands for the change of the read-out against control, counted positive when it falls. For `CSc1ccc(NC(=O)N2CCc3c(c(COc4ccccc4)nn3C)C2)cc1`, the inhibition at 25 µM came to 77%.

Take `Cn1nc(COc2ccccc2)c2c1CCN(C(=O)Nc1ccc(Cl)cc1)C2`: the inhibition at 25 µM worked out at 72%.

With `COc1ccc(NC(=O)N2CCc3c(c(COc4ccccc4)nn3C)C2)cc1F`, the inhibition at 25 µM was 69%.

On to `Cn1nc(COc2ccc(F)cc2)c2c1CCN(C(=O)Nc1ccc(Cl)cc1)C2`, for which the inhibition at 25 µM amounted to 66%.

Regarding `Cc1ccc(NC(=O)N2CCc3c(c(COc4ccccc4)nn3C)C2)cc1C`, the inhibition at 25 µM was 64%.

As for `Cc1ccc(NC(=O)N2CCc3c(c(COc4ccccc4)nn3C)C2)cc1`, the inhibition at 25 µM was found to be 61%.

Regarding `Cc1ccc(NC(=O)N2CCc3c(c(COc4ccc(F)cc4)nn3C)C2)cc1Cl`, the inhibition at 25 µM came to 61%.

As to `Cc1ccc(NC(=O)N2CCc3c(c(COc4ccc(F)cc4)nn3C)C2)cc1C`, the inhibition at 25 µM is 58%.

With `Cn1nc(COc2cccc(F)c2)c2c1CCN(C(=O)Nc1cccc(Cl)c1)C2`, the inhibition at 25 µM turned out to be 60%.

Turning to `Cn1nc(COc2ccc(F)cc2)c2c1CCN(C(=O)Nc1cccc(C(F)(F)F)c1)C2`, the inhibition at 25 µM came to 57%.

Regarding `CCc1ccc(NC(=O)N2CCc3c(c(COc4ccccc4)nn3C)C2)cc1`, the inhibition at 25 µM turned out to be 54%.

In the case of `Cn1nc(COc2ccc(F)cc2)c2c1CCN(C(=O)Nc1ccc(F)c(Cl)c1)C2`, the inhibition at 25 µM was 54%.

Turning to `COc1ccc(NC(=O)N2CCc3c(c(COc4ccc(F)cc4)nn3C)C2)cc1F`, the inhibition at 25 µM came out at 53%.

Turning to `CSc1cccc(NC(=O)N2CCc3c(c(COc4ccccc4)nn3C)C2)c1`, the inhibition at 25 µM was determined as 45%.

On to `Cc1ccc(NC(=O)N2CCc3c(c(COCc4cccc(F)c4)nn3C)C2)cc1Cl`, for which the inhibition at 25 µM was 49%.

With `Cc1ccc(NC(=O)N2CCc3c(c(COCc4ccc(F)cc4Cl)nn3C)C2)cc1C`, the inhibition at 25 µM came out at 48%.

For the compound `CCc1ccc(NC(=O)N2CCc3c(c(COCc4ccc(F)cc4Cl)nn3C)C2)cc1`, the inhibition at 25 µM was 49%.

For `Cc1ccc(NC(=O)N2CCc3c(c(COCc4ccc(Cl)cc4)nn3C)C2)cc1C`, the inhibition at 25 µM was found to be 49%.

For the compound `Cc1cc(-c2cc(S(=O)(=O)NC3CCCc4ccccc43)c(C)s2)[nH]n1` (centres unmarked), the inhibition at 25 µM is 53%.
